Reference: PubChem BioAssay AID1259408 (Genetic Toxicology Data Bank (GENE-TOX), 2018)
The source made the active and inactive calls. How the calls were made is not given here.

Tested on: GENE-TOX genotoxicity assays, various organisms and cells
Assay: GENE-TOX mutagenicity studies
Conditions: for call: Assay Type: In vivo carcinogenicity studies
Excerpt: GENE-TOX provides genetic toxicology (mutagenicity) test data from expert peer review of open scientific literature for more than 3,000 chemicals from the United States Environmental Protection Agency (EPA). GENE-TOX was established to select assay systems for evaluation, review data in the scientific literature, and recommend proper testing protocols and evaluation procedures for these systems.
GENE-TOX covers the years 1991 - 1998. It is no longer updated.
This is an archive assay for GENE-TOX mutagenicity studies.

[1] = Species/Cell Type: Human lymphocytes, Assay Type: Sister-chromatid exchange (SCE) in vitro, Assay Code: SCL+, Evaluation Type: Evaluation B (Post-1980)
[2] = Species/Cell Type: Nonhuman, Assay Type: Sister-chromatid exchange (SCE) in vitro, Assay Code: SC2+D, Dose Response: With dose response, Evaluation Type: Evaluation B (Post-1980)
[3] = Species/Cell Type: Vicia faba, Assay Type: Chromosome aberrations, Assay Code: VIC+, Evaluation Type: Evaluation A (Pre-1980)

Compound: Cc1c(N)nc([C@H](CC(N)=O)NC[C@H](N)C(N)=O)nc1C(=O)N[C@H](C(=O)N[C@H](C)[C@@H](O)[C@H](C)C(=O)N[C@H](C(=O)NCCc1nc(-c2nc(C(=O)NCCC[S+](C)C)cs2)cs1)[C@@H](C)O)[C@@H](OC1OC(CO)C(O)C(O)C1OC1OC(CO)C(O)C(OC(N)=O)C1O)c1cnc[nH]1 (stereo not given in full)
- mutagenic call (Species/Cell Type: Chinese hamster ovary (CHO) cells, Assay Type: Forward gene mutation at the HPRT locus, Assay Code: CHO+, Evaluation Type: Evaluation B (Post-1980)): active; positive
- mutagenic call (Species/Cell Type: Human bone marrow, Assay Type: Chromosome aberrations in vivo, Assay Code: CY5+, Evaluation Type: Evaluation A (Pre-1980)): active; positive
- mutagenic call (Species/Cell Type: Human cell culture, Assay Type: Chromosome aberrations in vitro, Assay Code: CYZ+, Evaluation Type: Evaluation A (Pre-1980)): active; positive
- mutagenic call (Species/Cell Type: Human lymphocytes or leukocytes, Assay Type: Chromosome aberrations in vitro, Assay Code: CY7+D, Dose Response: With dose response, Evaluation Type: Evaluation A (Pre-1980)): active; positive
- mutagenic call (Species/Cell Type: Human lymphocytes, Assay Type: Micronucleus test in vitro, chromosome aberrations, Assay Code: MN7+, Evaluation Type: Evaluation A (Pre-1980)): active; positive
- mutagenic call [1]: active; positive
- mutagenic call (Species/Cell Type: Human lymphocytes, Assay Type: Sister-chromatid exchange (SCE) in vitro, Assay Code: SCL-, Evaluation Type: Evaluation A (Pre-1980)): inactive; negative
- mutagenic call (Species/Cell Type: Human, Assay Type: Sister-chromatid exchange (SCE) in vitro, Assay Code: SC1+D, Dose Response: With dose response, Evaluation Type: Evaluation B (Post-1980)): active; positive
- mutagenic call (Species/Cell Type: Human, Assay Type: Sister-chromatid exchange (SCE) in vitro, Assay Code: SC1-, Evaluation Type: Evaluation A (Pre-1980)): inactive; negative
- mutagenic call (Species/Cell Type: Mammalian polychromatic erythrocytes, Assay Type: Micronucleus test, chromosome aberrations, Assay Code: MNT+, Evaluation Type: Evaluation B (Post-1980)): active; positive
- mutagenic call (Species/Cell Type: Mammalian polychromatic erythrocytes, Assay Type: Micronucleus test, chromosome aberrations, Assay Code: MNTT, Evaluation Type: Evaluation A (Pre-1980)): no conclusion
- mutagenic call (Species/Cell Type: Mouse (C3H/10T1/2) cells, Assay Type: Cell transformation, Assay Code: CTH+, Evaluation Type: Evaluation A (Pre-1980)): active; positive
- mutagenic call (Species/Cell Type: Nonhuman, Assay Type: Chromosome aberrations in vitro, Assay Code: CY&+, Evaluation Type: Evaluation A (Pre-1980)): active; positive
- call (Species/Cell Type: Nonhuman, Assay Code: CCGT, Evaluation Type: Evaluation A (Pre-1980)): no conclusion
- mutagenic call (Species/Cell Type: Nonhuman, Assay Type: Sister-chromatid exchange (SCE) in vitro, Assay Code: SC2+D, Dose Response: With dose response, Evaluation Type: Evaluation A (Pre-1980)): active; positive
- mutagenic call [2]: active; positive
- mutagenic call (Species/Cell Type: Nonhuman, Assay Type: Sister-chromatid exchange (SCE) in vivo, Assay Code: SC3+D, Dose Response: With dose response, Evaluation Type: Evaluation B (Post-1980)): active; positive
- mutagenic call (Species/Cell Type: Saccharomyces cerevisiae, Assay Type: Forward gene mutation, Assay Code: YEF+, Evaluation Type: Evaluation A (Pre-1980)): active; positive
- mutagenic call (Species/Cell Type: Saccharomyces cerevisiae, Assay Type: Mitotic recombination or gene conversion, Assay Code: YEC+, Evaluation Type: Evaluation A (Pre-1980)): active; positive
- mutagenic call (Species/Cell Type: Saccharomyces cerevisiae, Assay Type: Mitotic recombination or gene conversion, Assay Code: YEH+, Evaluation Type: Evaluation A (Pre-1980)): active; positive
- mutagenic call (Species/Cell Type: Saccharomyces cerevisiae, Assay Type: Reverse gene mutation, Assay Code: YER+, Evaluation Type: Evaluation A (Pre-1980)): active; positive
- mutagenic call [3]: active; positive

Compound: CC(=O)ONC(=O)c1ccc2ccccc2c1
- mutagenic call [2]: active; positive

Compound: OC/C=C/c1ccc2c(c1)OCO2
- mutagenic call (Species/Cell Type: Salmonella typhimurium (one or more of the five standard strains: TA98, TA100, TA1535, TA1537, and TA1538), Assay Type: Histidine reverse gene mutation, Ames assay, Assay Code: SALT, Evaluation Type: Evaluation A (Pre-1980)): no conclusion

Compound: C1O[C@@H]1[C@@H]1CO1
- mutagenic call (Species/Cell Type: Arabidopsis species, Assay Type: Gene mutation, Assay Code: ARM+, Evaluation Type: Evaluation A (Pre-1980)): active; positive
- mutagenic call (Species/Cell Type: Schizosaccharomyces pombe, Assay Type: Reverse gene mutation, Assay Code: YEZ+, Evaluation Type: Evaluation A (Pre-1980)): active; positive
- mutagenic call (Species/Cell Type: Zea mays (corn), Assay Type: Gene mutation, Assay Code: ZEM+, Evaluation Type: Evaluation A (Pre-1980)): active; positive

Compound: Oc1cccc2cccnc12
- mutagenic call [1]: active; positive
- mutagenic call (Species/Cell Type: Human, Assay Type: Sister-chromatid exchange (SCE) in vitro, Assay Code: SC1+, Evaluation Type: Evaluation B (Post-1980)): active; positive
- mutagenic call (Species/Cell Type: Mammalian polychromatic erythrocytes, Assay Type: Micronucleus test, chromosome aberrations, Assay Code: MNTT, Evaluation Type: Evaluation B (Post-1980)): no conclusion
- mutagenic call (Species/Cell Type: Neurospora crassa, Assay Type: Aneuploidy, chromosome aberrations, Assay Code: NEN-, Evaluation Type: Evaluation A (Pre-1980)): inactive; negative
- call (Species/Cell Type: Nonhuman, Assay Code: CCG-, Evaluation Type: Evaluation A (Pre-1980)): inactive; negative
- mutagenic call (Species/Cell Type: Saccharomyces cerevisiae, Assay Type: Mitotic recombination or gene conversion, Assay Code: YEC-, Evaluation Type: Evaluation A (Pre-1980)): inactive; negative
- mutagenic call (Species/Cell Type: Salmonella typhimurium (one or more of the five standard strains: TA98, TA100, TA1535, TA1537, and TA1538), Assay Type: Histidine reverse gene mutation, Ames assay, Assay Code: SAL+*, Activation: With metabolic activation, Evaluation Type: Evaluation A (Pre-1980)): active; positive
- mutagenic call [3]: active; positive
